Laboratory results: PubChem BioAssay AID1919002 (Molecular Pharmacology Branch, DTP, NCI, 2023)
“And” between values parts separate entries of the source, which are not always exact repeats. Identical values can stand only once.

System: 743489-274-T-PDC complex spheroid growth
Assay: Anticancer human tumor 743489-274-T-PDC patient-derived renal cell carcinoma cell line growth inhibition [AhR]
Conditions: for viability, T/C: stronger effect = lower value
Method in brief: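 Agents were dosed in half-log steps down from roughly clinical Cmax, or from 10 microM where Cmax was unknown, alone and with AhR antagonists. Read-out: percent test/control growth of tumor spheroids containing HUVEC and MSC stromal cells.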

[1] = curve of first compound, second compound 0.1 µM
[2] = curve of first compound, second compound 0.316 µM
[3] = curve of first compound, second compound 1 µM
[4] = curve of first compound, second compound 3.16 µM
[5] = curve of first compound, second compound 10 µM
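Note: spheroids exposed to agents for 7 days before readout.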
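Throughout, for viability, T/C: 100% = DMSO vehicle control wells.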

`CC[C@@]1(O)C(=O)OCc2c1cc1n(c2=O)Cc2cc3c(CN(C)C)c(O)ccc3nc2-1` was tested, and the viability, T/C (compound 0.000316 µM) was 109% and 97.4% and 106%, the viability, T/C (compound 0.001 µM) was 110% and 94.7% and 90.2% and the viability, T/C (compound 0.00316 µM) was 107% and 97.5% and 93.5%. For the same compound, the viability, T/C (compound 0.01 µM) was 100% and 103% and 93.5%, the viability, T/C (compound 0.0316 µM) was 95% and 105% and 97.2% and the viability, T/C (compound 0.1 µM) was 96.3% and 83.8% and 91.8%. For the same compound, the IC50 (curve of compound) was > 0.1 µM.
With `COc1cc(C2c3cc4c(cc3C(OC3OC5COC(C)OC5C(O)C3O)C3COC(=O)C23)OCO4)cc(OC)c1O` (configuration not stated) + Cc1ccccc1N=Nc1ccc(NC(=O)c2ccnn2C)c(C)c1 the IC50 [1] was > 10 µM, the IC50 [2] was > 10 µM and the IC50 [3] was > 10 µM. For the same compound, the IC50 [4] was > 10 µM, the IC50 [5] was > 10 µM and the viability, T/C (second compound 0.1 µM, first compound 0.0316 µM) was 98.7%. It also gave a viability, T/C (second compound 0.1 µM, first compound 0.1 µM) of 87%, a viability, T/C (second compound 0.1 µM, first compound 0.316 µM) of 97.2% and a viability, T/C (second compound 0.1 µM, first compound 1 µM) of 94.4%. The viability, T/C (second compound 0.1 µM, first compound 3.16 µM) was 98.3%, the viability, T/C (second compound 0.1 µM, first compound 10 µM) was 79.9% and the viability, T/C (second compound 0.316 µM, first compound 0.0316 µM) was 91.2%. It also gave a viability, T/C (second compound 0.316 µM, first compound 0.1 µM) of 93.6%, a viability, T/C (second compound 0.316 µM, first compound 0.316 µM) of 91.2% and a viability, T/C (second compound 0.316 µM, first compound 1 µM) of 88.9%. It also gave a viability, T/C (second compound 0.316 µM, first compound 3.16 µM) of 77.9%, a viability, T/C (second compound 0.316 µM, first compound 10 µM) of 80.7% and a viability, T/C (second compound 1 µM, first compound 0.0316 µM) of 86.7%. For the same compound, the viability, T/C (second compound 1 µM, first compound 0.1 µM) was 93.7%, the viability, T/C (second compound 1 µM, first compound 0.316 µM) was 90.7% and the viability, T/C (second compound 1 µM, first compound 1 µM) was 88.9%. The viability, T/C (second compound 1 µM, first compound 3.16 µM) was 90.4%, the viability, T/C (second compound 1 µM, first compound 10 µM) was 74.8% and the viability, T/C (second compound 3.16 µM, first compound 0.0316 µM) was 83.3%. It also gave a viability, T/C (second compound 3.16 µM, first compound 0.1 µM) of 90.2%, a viability, T/C (second compound 3.16 µM, first compound 0.316 µM) of 86.9% and a viability, T/C (second compound 3.16 µM, first compound 1 µM) of 78.8%. For the same compound, the viability, T/C (second compound 3.16 µM, first compound 3.16 µM) was 78.6%, the viability, T/C (second compound 3.16 µM, first compound 10 µM) was 75.8% and the viability, T/C (second compound 10 µM, first compound 0.0316 µM) was 78.4%. It also gave a viability, T/C (second compound 10 µM, first compound 0.1 µM) of 81.8%, a viability, T/C (second compound 10 µM, first compound 0.316 µM) of 95.1% and a viability, T/C (second compound 10 µM, first compound 1 µM) of 72%. It also gave a viability, T/C (second compound 10 µM, first compound 3.16 µM) of 69.4% and a viability, T/C (second compound 10 µM, first compound 10 µM) of 70.7%.
In the case of `CCN(c1cc(-c2ccc(CN3CCOCC3)cc2)cc(C(=O)NCc2c(C)cc(C)[nH]c2=O)c1C)C1CCOCC1` + Cc1ccccc1N=Nc1ccc(NC(=O)c2ccnn2C)c(C)c1, the IC50 [1] is reported as > 3 µM, the IC50 [2] is reported as > 3 µM and the IC50 [3] is reported as > 3 µM. The IC50 [4] was > 3 µM, the IC50 [5] was > 3 µM and the viability, T/C (second compound 0.1 µM, first compound 0.00949 µM) was 91.2%. It also gave a viability, T/C (second compound 0.1 µM, first compound 0.03 µM) of 88.2%, a viability, T/C (second compound 0.1 µM, first compound 0.0949 µM) of 93.7% and a viability, T/C (second compound 0.1 µM, first compound 0.3 µM) of 84.5%. The viability, T/C (second compound 0.1 µM, first compound 0.949 µM) was 90.8%, the viability, T/C (second compound 0.1 µM, first compound 3 µM) was 90.4% and the viability, T/C (second compound 0.316 µM, first compound 0.00949 µM) was 82.1%. It also gave a viability, T/C (second compound 0.316 µM, first compound 0.03 µM) of 93.3%, a viability, T/C (second compound 0.316 µM, first compound 0.0949 µM) of 86.2% and a viability, T/C (second compound 0.316 µM, first compound 0.3 µM) of 77.3%. For the same compound, the viability, T/C (second compound 0.316 µM, first compound 0.949 µM) was 86.6%, the viability, T/C (second compound 0.316 µM, first compound 3 µM) was 84.2% and the viability, T/C (second compound 1 µM, first compound 0.00949 µM) was 88.6%. For the same compound, the viability, T/C (second compound 1 µM, first compound 0.03 µM) was 83.2%, the viability, T/C (second compound 1 µM, first compound 0.0949 µM) was 89.5% and the viability, T/C (second compound 1 µM, first compound 0.3 µM) was 94.3%. It also gave a viability, T/C (second compound 1 µM, first compound 0.949 µM) of 81%, a viability, T/C (second compound 1 µM, first compound 3 µM) of 99.6% and a viability, T/C (second compound 3.16 µM, first compound 0.00949 µM) of 76%. For the same compound, the viability, T/C (second compound 3.16 µM, first compound 0.03 µM) was 77%, the viability, T/C (second compound 3.16 µM, first compound 0.0949 µM) was 77.2% and the viability, T/C (second compound 3.16 µM, first compound 0.3 µM) was 74.5%. For the same compound, the viability, T/C (second compound 3.16 µM, first compound 0.949 µM) was 81%, the viability, T/C (second compound 3.16 µM, first compound 3 µM) was 82% and the viability, T/C (second compound 10 µM, first compound 0.00949 µM) was 72.2%. It also gave a viability, T/C (second compound 10 µM, first compound 0.03 µM) of 84.3%, a viability, T/C (second compound 10 µM, first compound 0.0949 µM) of 85.9% and a viability, T/C (second compound 10 µM, first compound 0.3 µM) of 71.7%. It also gave a viability, T/C (second compound 10 µM, first compound 0.949 µM) of 77.9% and a viability, T/C (second compound 10 µM, first compound 3 µM) of 73.1%.
